# Results published in patent US11236106B2, “Cycloalkane-1,3-diamine derivative” (Daiichi Sankyo Company, Limited, priority 2018, dated 2022).
# Structures can show the parent of a compound that is named as a salt. Where two headings read alike, the source gives them in different places.
# Assays:
# [1] = system: K562 cells; details: read-out: GI50, cell growth inhibitory activity, K562, day 7, cultured 7 days, assigned by order and values
# Experimental: (§4) RPMI1640 medium supplemented with 10% FBS was used as a culture medium for each cells (MV-4-11, MOLM-13 cells, human AML cells, K562 cells, human CML cells). […] The prepared drug-containing plate was stored at −30° C. until use, and thawed before use.
# (§5) The suspension of each cells was prepared with 10% FBS RPMI1640 culture medium so as to be 1000 cells/mL (K562) or 10000 cells/mL (MV-4-11, MOLM-13), and seeded on the drug-containing plate (40 μL/well) (day 0). The cells were cultured for additional 3 or 7 days. ATP measurement reagent (CellTiter-Glo (registered trademark, Promega Corporation) 2.0 Assay, model number G9242, Promega Corporation) was added to each well at 10 μL/well, on the day of the drug addition (day 0) and 3 days (day 3) or 7 days (day 7) after the drug addition. After affixing a black sticker on the bottom surface, the mixture was stirred using a microplate mixing deaeration machine (model name, Weltornado FK-62, Sakaki Dengyo Co., Ltd.) (stirring conditions, revolution 9, rotation 7, time 12).
# (§6) The cell growth of the drug-added group from day 0 to day 3 or day 7 was calculated as T/C %, when the cell growth of the drug-free group was considered as 100%.
# [2] = target: T1, menin and MLL (menin, Flag tagged; biotinylated MLL1 peptide 1-46aa) (Homo sapiens, UniProt O00255); assay: biochemical; details: AlphaLISA, 1 nM menin, 10 nM biotinylated MLL1 peptide
# T1 sequence (O00255 1-610): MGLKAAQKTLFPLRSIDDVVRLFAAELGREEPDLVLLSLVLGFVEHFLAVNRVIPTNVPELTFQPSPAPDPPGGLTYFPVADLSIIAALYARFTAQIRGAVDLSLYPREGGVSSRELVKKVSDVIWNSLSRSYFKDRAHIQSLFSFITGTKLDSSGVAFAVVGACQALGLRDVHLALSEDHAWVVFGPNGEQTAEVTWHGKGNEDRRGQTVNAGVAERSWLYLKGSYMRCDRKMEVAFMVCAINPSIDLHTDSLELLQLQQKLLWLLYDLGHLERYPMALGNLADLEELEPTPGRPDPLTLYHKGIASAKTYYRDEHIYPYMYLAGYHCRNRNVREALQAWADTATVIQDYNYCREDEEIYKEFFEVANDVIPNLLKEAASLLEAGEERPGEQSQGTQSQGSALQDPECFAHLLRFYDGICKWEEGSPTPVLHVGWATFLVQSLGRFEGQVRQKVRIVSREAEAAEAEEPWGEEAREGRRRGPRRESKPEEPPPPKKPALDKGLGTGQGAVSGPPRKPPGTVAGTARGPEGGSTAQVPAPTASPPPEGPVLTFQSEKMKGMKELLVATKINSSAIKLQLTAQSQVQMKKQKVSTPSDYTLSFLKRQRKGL
# Experimental: Then, the fluorescence signal by AlphaLISA (registered trademark, PerkinElmer Co., Ltd.) was measured using a plate reader (PerkinElmer Co., Ltd., EnVisionXcite).
# [3] = system: MV-4-11 cells; assay: Antitumor activity in MV-4-11 cell subcutaneous transplant model (Experimental Example 3-4); type: in vivo, mice; details: Exp. Ex. 3-4, oral, 32 days after transplantation
# Experimental: (§1) MV-4-11 cells were purchased from ATCC. The female FOX CHASE SCID C.B.17/Icr-scid/scidJcl mice were purchased from Claire Japan. […] The compound was administered as a suspension in 0.5% MC. For the compound-free group, 0.5% MC was administered as a solvent. The estimated individual tumor volume was measured from the day of the grouping to 32 days after the transplantation (test end date).
# (§2) Tumor growth inhibitory rate %=(1−TVCt/TVCc)×100 TVC=(Individual tumor volume on the test end date)−(Individual tumor volume on the grouping date) TVCt: TVC mean value of the compound administration group TVCc: TVC mean value of the compound-free group
# [4] = system: MLL-AF9-overexpressing AML-like cells (MA9 cells); assay: Differentiation-inducing activity in MLL-AF9-overexpressing AML-like cells (flow cytometry of Gr-1 and cKit); type: cell-based, mouse; details: 7 days, 5 or 20 nM (Ex. 25, 27), 150 or 300 nM (Ex. 26), 50 or 100 nM (Ex. 22)
# Experimental: The human MLL-AF9 fusion gene was introduced into cKit-positive mononuclear cells isolated from the myeloid of C57BL6 mouse, by retrovirus infection. MLL-AF9-overexpressing AML-like cells (MA9 cells) that acquired abnormal growth ability were established by liquid-culturing the cells after virus infection for a long period of time. Serum-free medium (GlutaMax, P/S, Stem Pro-34 medium containing 10 ng/ml mIL-3, ng/mL mSCF and 10 ng/mL human Oncostatin M) was used as a culture medium.
# For the control group, DMSO was added thereto at a final concentration of 0.1% (2 μL/well) (day 0). After culturing for 7 days (day 7), the cells were collected, and blocked with 5% FBS/PBS containing 10% Mouse BD Fc Block (BD) for 10 minutes at room temperature, and then any of various antibodies (Gr-1-FITC or CD117 (cKit)-APC: Biolegend) was added thereto at a final concentration of 0.4 μg/sample, and the mixture was reacted on ice for 30 minutes. Then, dead cell staining dye DAPI (0.2 mg/mL) was added thereto at so as to be […], and the reaction was carried out on ice for additional 2 minutes under shading. Then, the expression level of each surface antigen of the cells was measured by NovoCyte flow cytometer (LMS). The obtained data were analyzed by FlowJo software (Becton Dickinson), and the rate of each surface antigen-expressing cells in the living cells excluding dead cells was graphed.
# [5] = system: MV-4-11 cells; assay: Antitumor activity in MV-4-11 cell subcutaneous transplant model (Experimental Example 3-2); type: in vivo, mice; details: Exp. Ex. 3-2, oral, 34 days after transplantation
# Experimental: as §1, with “34” for “32”
# as §2
# [6] = system: MV-4-11 cells; details: read-out: GI50, cell growth inhibitory activity, MV-4-11, day 7, cultured 7 days, assigned by order and values, Hydrochloride
# Experimental: as §4, §5, §6
# [7] = system: K562 cells; assay: cells; details: Homo sapiens, K562, 168 h, read-out: GI50, cell growth inhibitory activity, K562, day 7
# Experimental: as §4, §5, §6
# [8] = system: OCI-AML3 cells; assay: cells; details: Homo sapiens, OCI-AML-3, 168 h, read-out: GI50 (nM) Day 7
# Experimental: The cells were purchased from Deutsche Sammlung von Mikroorganismen und Zellkulturen GmbH (DSMZ). […] The prepared drug-containing plate was stored at −30° C. until use, and thawed before use.
# The suspension of the cells was prepared with 10% FBS RPMI1640 culture medium so as to be 50000 cells/mL, and seeded on the drug-containing plate (40 μL/well) (day 0). The cells were cultured for additional 7 days. ATP measurement reagent (CellTiter-Glo (registered trademark, Promega Corporation) 2.0 Assay, model number G9242, Promega Corporation) was added to each well at 10 μL/well, on the day of the drug addition (day 0) and 7 days (day 7) after the drug addition. After affixing a black sticker on the bottom surface, the mixture was stirred using a microplate mixing deaeration machine (model name, Weltornado FK-62, Sakaki Dengyo Co., Ltd.) (stirring conditions, revolution 9, rotation 7, time 12).
# The cell growth of the drug-added group from day 0 to day 7 was calculated as T/C %, when the cell growth of the drug-free group was considered as 100%. GI5o was calculated by GROWTH function (exponential regression) using two concentrations sandwiching the concentration (T/C %=50%) that suppresses cell growth by 50%, and T/C %.
# [9] = system: MV-4-11 cells; assay: cells; details: Homo sapiens, MV4-11, 168 h, read-out: GI50, cell growth inhibitory activity, MV-4-11, day 7
# Experimental: as §4, §5, §6
# [10] = system: K562 cells; assay: Cell growth inhibitory activity, K562 cells (Experimental Example 7, 96-well); type: cell-based; details: Homo sapiens, 168 h, day 7, linear regression
# Experimental: (§3) A solution of each concentration (MV-4-11 and MOLM-13: common ratio of 3, 9 concentrations from the final concentration of 1 μM, K562: common ratio of 3, 9 concentrations from the final concentration of 10 μM) of a drug (the compound of Example 131) or a growth medium containing 0.2% DMSO was added to each well at 50 μL/well, and the cells were cultured for additional 7 days.
# [11] = system: MOLM-13 cells; assay: Cell growth inhibitory activity, MOLM-13 cells (Experimental Example 7, 96-well); type: cell-based; details: Homo sapiens, 168 h, day 7, Sigmoid Emax model
# Experimental: as §3
# [12] = system: MV-4-11 cells; assay: Cell growth inhibitory activity, MV-4-11 cells (Experimental Example 7, 96-well); type: cell-based; details: Homo sapiens, MV4-11, 168 h, day 7, Sigmoid Emax model
# Experimental: as §3
# [13] = system: MV-4-11 cells; details: Exp. Ex. 3-3, oral, 31 days after transplantation
# Experimental: MV-4-11 cells were purchased from ATCC. The female FOX CHASE SCID C.B.17/Icr-scid/scidJcl mice were purchased from Claire Japan. […] The compound was administered as a suspension in 0.5% MC. For the compound-free group, 0.5% MC was administered as a solvent. The estimated individual tumor volume was measured from the day of the grouping to 31 days after the transplantation (test end date).
# [14] = IC50, binding inhibitory activity between menin and MLL
smiles,measurement,setting,value
"COc1nc(N(C)C2CC(NCC3CCC(c4cc(OC)c(OC)nn4)CC3)CC2O)c2cc(CC(F)(F)F)sc2n1 (single isomer, unassigned) [Example 128B, Hydrochloride]",GI50,[1],> 5000 nM
same,IC50,[2]; [14],6.6 nM
"COc1cc(-c2ccc(CN[C@H]3C[C@@H](O)[C@@H](N(C)c4ncnc5sc(CC(F)(F)F)cc45)C3)cc2)cnc1C.Cl [Example 60, (1R,2S,4R)-4-({[4-(5-methoxy-6-methylpyridin-3-yl)phenyl]methyl}amino)-2-{methyl[6-(2,2,2-trifluoroethyl)thieno[2,3-d]pyrimidin-4-yl]amino}cyclopentan-1-ol hydrochloride]",IC50,[2]; cell free IC50 (nM),2.4 nM
same,Estimated tumor volume (test end date) Mean ± S.E.,"[3]; qdx16, 25 mg/kg/day",558 ± 79
same,Estimated tumor volume (test end date) Mean ± S.E.,"[3]; qdx16, 50 mg/kg/day",25 ± 11
same,Estimated tumor volume (test end date) Mean ± S.E.,"[3]; qdx16, 100 mg/kg/day",0 ± 0
"COc1cc(-c2ccc(CN[C@H]3C[C@@H](O)[C@@H](N(C)c4ncnc5sc(CC(F)(F)F)cc45)C3)cc2)nnc1OC [Example 25, (1R,2S,4R)-4-({[4-(5,6-dimethoxypyridazin-3-yl)phenyl]methyl}amino)-2-{methyl[6-(2,2,2-trifluoroethyl)thieno[2,3-d]pyrimidin-4-yl]amino}cyclopentan-1-ol Hydrochloride]",rate of the myeloid cell differentiation antigen Gr-1-expressing cells in living cells,[4]; versus control group (FIG. 10),increased the rate of Gr-1-positive cells
same,rate of the cKit-expressing cells in living cells,[4]; versus control group (FIG. 11),reduced the rate of cKit-positive cells
same,Estimated tumor volume (test end date) Mean ± S.E.,"[5]; qdx18, 25 mg/kg/day",250 ± 38
same,Estimated tumor volume (test end date) Mean ± S.E.,"[5]; qdx18, 50 mg/kg/day",0 ± 0
same,Estimated tumor volume (test end date) Mean ± S.E.,"[5]; qdx18, 100 mg/kg/day",0 ± 0
"COc1nc(N(C)C2CC(NCC3CCC(c4cc(OC)c(OC)nn4)CC3)CC2O)c2cc(CC(F)(F)F)sc2n1 (single isomer, unassigned) [Example 128A, Hydrochloride]",GI50,[6],728 nM
same,GI50,[7],> 5000 nM
same,IC50,[2]; [14],18.4 nM
"COc1cc(-c2ccc(CN[C@H]3C[C@@H](O)[C@@H](N(C)c4ncnc5sc(CC(F)(F)F)cc45)C3)cc2)cnc1OC.Cl [Example 67, (1R,2S,4R)-4-({[4-(5,6-dimethoxypyridin-3-yl)phenyl]methyl}amino)-2-{methyl[6-(2,2,2-trifluoroethyl)thieno[2,3-d]pyrimidin-4-yl]amino}cyclopentan-1-ol hydrochloride]",IC50,[2]; [14],2.1 nM
same,Estimated tumor volume (test end date) Mean ± S.E.,"[3]; qdx16, 25 mg/kg/day",896 ± 56
same,Estimated tumor volume (test end date) Mean ± S.E.,"[3]; qdx16, 50 mg/kg/day",381 ± 59
same,Estimated tumor volume (test end date) Mean ± S.E.,"[3]; qdx16, 100 mg/kg/day",0 ± 0
"COc1nc(N(C)[C@H]2C[C@@H](NCc3ccc(-c4cc(OC)c(OC(F)F)nn4)cc3)C[C@H]2O)c2cc(CC(F)(F)F)sc2n1 [Example 119, (1R,2S,4R)-4-[({4-[6-(difluoromethoxy)-5-methoxypyridazin-3-yl]phenyl}methy)amino]-2-{[2-methoxy-6-(2,2,2-trifluoroethyl)thieno[2,3-d]pyrimidin-4-yl](methyl)amino}cyclopentan-1-ol hydrochloride]",GI50,[8],33 nM
same,GI50,[9],15.7 nM
same,GI50,[7],859 nM
same,IC50,[2]; [14],0.7 nM
"COc1cc(-c2ccc(CN[C@H]3C[C@@H](O)[C@@H](N(C)c4ncnc5sc(CC(F)(F)F)cc45)C3)cc2)nnc1OC [Example 131, (1R,2S,4R)-4-({[4-(5,6-dimethoxypyridazin-3-yl)phenyl]methyl}amino)-2-{methyl[6-(2,2,2-trifluoroethyl)thieno[2,3-d]pyrimidin-4-yl]amino}cyclopentan-1-ol Succinate]",GI50,[10],9110 nM
same,GI50,[11],10.1 nM
same,GI50,[12],1.97 nM
"COc1cc(-c2ccc(CN[C@H]3C[C@@H](O)[C@@H](N(C)c4ncnc5sc(CC(F)(F)F)cc45)C3)cc2)cnc1F.Cl [Example 68, (1R,2S,4R)-4-({[4-(6-fluoro-5-methoxypyridin-3-yl)phenyl]methyl}amino)-2-{methyl[6-(2,2,2-trifluoroethyl)thieno[2,3-d]pyrimidin-4-yl]amino}cyclopentan-1-ol hydrochloride]",Estimated tumor volume (test end date) Mean ± S.E.,"[13]; qdx17, 25 mg/kg/day",1151 ± 142
same,Estimated tumor volume (test end date) Mean ± S.E.,"[13]; qdx17, 50 mg/kg/day",559 ± 104
same,Estimated tumor volume (test end date) Mean ± S.E.,"[13]; qdx17, 100 mg/kg/day",31 ± 23
same,IC50,[2]; [14],1.7 nM
